From US6355674B1, “Aminotetralins as 5-HT1D α Agonists” (Eli Lilly and Company, priority 1997, dated 2002) come the findings set out here.

Broadly, the melting point is the temperature, or range, at which the solid turns liquid.

The structures appear in SMILES notation. Where a name gives a salt, the structure may show the parent alone.

With `CN(C)C1CCc2cccc(C3(O)CCCCCC3)c2C1` (stereo not drawn) (as salt: hydrobromid) (hydrate or solvate), the melting point lay within 186 to 187 °C.

Compound `C/C=C(\CC)c1cccc2c1C[C@H](N(C)C)CC2` (as salt: hydrochloride) had a melting point of 158 to 160 °C.

In the case of `Cc1cccc2c1C[C@H](N(C)C)CC2` (as salt: hydrochloride), the melting point is 180 to 181 °C (dec.).

The compound `CN(C)C1CCc2cccc(C3(O)CCCCC3)c2C1` (stereo not drawn) (as salt: hydrobromid) (hydrate or solvate) showed a melting point of 210 to 211 °C.

Take `CN(C)C1CCc2cccc(C3CCCC3)c2C1` (stereo not drawn) (as salt: hydrochloride): the melting point fell in the range of 158 to 159 °C.

The compound `COCCOCc1cccc2c1CC(N(C)C)CC2` (stereo not drawn) (as salt: hydrochloride) gave a melting point of 147 to 148 °C.
